Series [1] deals with T1, glucose-6-phosphate-dehydrogenase (Saccharomyces cerevisiae, UniProt P11412).
T1 construct: purchased Boehringer Mannheim
T1 sequence (P11412 1-505): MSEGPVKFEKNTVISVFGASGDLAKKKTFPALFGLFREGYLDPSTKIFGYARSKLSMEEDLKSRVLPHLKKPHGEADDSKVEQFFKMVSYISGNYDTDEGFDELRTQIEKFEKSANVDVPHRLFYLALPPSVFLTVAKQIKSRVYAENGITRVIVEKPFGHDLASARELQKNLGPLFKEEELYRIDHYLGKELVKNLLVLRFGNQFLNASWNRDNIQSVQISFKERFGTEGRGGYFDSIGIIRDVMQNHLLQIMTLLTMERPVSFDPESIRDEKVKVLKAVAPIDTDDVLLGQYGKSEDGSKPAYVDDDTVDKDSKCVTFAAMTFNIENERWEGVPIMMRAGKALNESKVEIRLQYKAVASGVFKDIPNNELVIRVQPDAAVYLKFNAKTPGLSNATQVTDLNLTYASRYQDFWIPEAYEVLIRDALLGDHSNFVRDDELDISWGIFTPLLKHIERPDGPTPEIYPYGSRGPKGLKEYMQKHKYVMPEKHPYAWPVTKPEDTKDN
Nature of the series: Inhibition of the glucose-6-phosphate-dehydrogenase. Type of series: biochemical. The conditions noted are these: 366 nm. The protocol:
Measurement of the inhibition of the glucose-6-phosphate-dehydrogenase.
The equilibrium was observed: [drawing 6]
The rate of formation of NADPH is a measure for the enzyme activity; it may be observed by means of the extinction increase at 340,334 or 366 nm per unit of time.
0.025 ml of glucose-6-phosphate-dehydrogenase (Boehringer Mannheim) were filled up to 10 ml of distilled water (solution I). 100 mgm of nicotinamide-adenine-dinucleotide-phosphate were dissolved in 13 ml of distilled water (solution II). 47.2 mgm of glucose-6-phosphate were dissolved in further 10 ml of distilled water (solution III). Simultaneously a buffer solution (solution IV) was prepared as follows:
0.28 gm of triethanolamine-hydrochloride and 1.461 gm of ethylene diaminotetraacetic acid-disodium salt were dissolved in 1 liter of distilled water and adjusted to a pH of 7.6 with sodium hydroxide solution. The substance under test was dissolved in dimethyl formamide or ethanol (solution V). Tested concentrations: 50; 25; 12.5; 6.25; 3.125; 1.56 and 0.78 μg/ml.
0.1 ml of solution I, 0.1 ml of solution II, 2.67 ml of solution IV and 0.03 ml of solution V were mixed and kept at 25° C. for 5 minutes. Then 0.1 ml of solution III was added, mixed and the alteration of extinction was determined spectrophotometrically at 366 nm for 3 minutes.
0.1 ml of solution I, 0.1 ml of solution II, 2.67 ml of solution IV and 0.03 ml of solution V were mixed and kept at 37° C. for 60 minutes. Then 0.1 ml of solution III was added, mixed and the alteration of extinction was measured spectrophotometrically at 366 nm for 3 minutes.
The inhibitory values were calculated from the average values of three measurements (alteration of extinction per minute) compared with controls, which received the pure solvent as the inhibitory solution. Then the ED50 was calculated according to Reed and Muench from the inhibitory values for the various concentrations.

Series [2] is described as follows: Compatibility on the skin under occlusion. The conditions noted are these: cream containing 10% of compound A; over 24 hours under occlusion. Type of series: in vivo.
A short description of series [3]: Acute toxicity, LD50 in the mouse. The settings on record: in vivo, ip, death within 14 days. The protocol: The acute toxicity was determined with mice. The LD50, the dose leading to the death of 50% of the animals within 14 days, was calculated.
Another series concerns HeLa-cell culture. Nature of the series: Inhibition of cell cultures (HeLa). The class given is cell-based. The settings on record: Homo sapiens, 72 h, 37° C., 3 days, read-out: Minimal inhibitory concentration. As for the experimental part: Measurement of the inhibition of cell cultures
HeLa-cell culture was treated with trypsin and adjusted to a cell number of 150,000 cells/ml of fresh medium. The substance was always dissolved in the same quantity of dimethyl sulfoxide and then further diluted with growth medium. 0.1 ml of the substance-dilutions were added to each well of microtiter plates and then 0.2 ml of cell suspension were added (4 wells per dilution). Several growth controls containing 0.1 ml of growth medium instead of 0.1 ml of substance dilution were put up. After careful mixing, the cultures were incubated at 37° C. for 3 days in a 5% carbon dioxide atmosphere. The reading was effected in comparison with these controls. The results were given as the percentage of the deficiency and degeneration compared to the growth control. […] The data are referred to μg of substance per ml of total medium.

Another series has as its system humans. The conditions noted are these: cited from earlier work.
The mark [4] stands for this setting: 25° C., 5 minutes before substrate, read-out: G6PDH-inhibition ED50, Immediate Inhibition (converted).
[5] abbreviates: 37° C., 60 minutes before substrate, read-out: G6PDH-inhibition ED50, Inhibition of Incubation (converted).

Read-outs that look alike come from different tables or passages of the source.

For `CCc1c(O)ccc(C(=O)C(F)(F)F)c1O` [C, 3-Ethyl-2,4-dihydroxy-trifluoroacetophenone], the figures for the IC50 in series [1] (setting [4]) and in series [1] (setting [5]) were 160 µM and 85.4 µM, respectively.

As to `O=C(c1ccc(O)cc1O)C(F)(F)F` [Compound A, 2,4-Dihydroxy-trifluoroacetophenone], the IC50 in series [1] (setting [4]) was more than 243 µM; in series [1] (setting [5]), 160 µM. Moreover, the “compatibility on the skin” value in series [2] is on record as “tolerated without irritation”. The compound also gave an LD50 at 336 h in series [3] of 105 mg/kg.

As for `CCc1cc(C(=O)C(F)(F)F)c(O)cc1O` [Compound B, 5-Ethyl-2,4-dihydroxy-trifluoroacetophenone], the IC50 was 147 µM in series [1] (setting [4]) and 128 µM in series [1] (setting [5]). In series [3], the LD50 at 336 h came to 88 mg/kg.

Regarding `COc1ccc(C(=O)C(F)(F)F)c(OC)c1` [D, 2,4-Dimethoxy-trifluoroacetophenone], the IC50 in series [1] (setting [4]) and in series [1] (setting [5]) was more than 214 µM throughout. In addition, in the series with HeLa-cell culture, the minimal effective concentration was determined as 25 µg/mL.

Consider `CCCCCCc1ccc(O)cc1O` [hexylresorcinol], for which the allergies in humans result in the series with humans is listed as “in some cases cause allergies in humans”.

The term LD50 denotes the dose at which mortality reaches 50%. Lower therefore signals a more toxic substance.

Values taken from patent publication US4229479A, “Fluoracylresorcinols as ingredients in pharmaceutical, cosmetic and pesticidal compositions” (Boehringer Ingelheim GmbH, priority 1976, dated 1980).
